Results as given in US7326732B2, “EP2 receptor agonists” (Pharmagene Laboratories Limited, priority 2004, dated 2008).

Key:
human EP3 receptor = target: T1, human EP3 receptor (Homo sapiens, UniProt P43115); assay: Binding ability to human EP receptors ([3H]PGE2 displacement), EP3; conditions: membranes expressing human EP3; [3H]PGE2 2.5 nM; Cheng-Prusoff; read-out: pKi (M) EP3 (converted)
T1 construct: expressed in transfected cells
T1 sequence (P43115 1-390): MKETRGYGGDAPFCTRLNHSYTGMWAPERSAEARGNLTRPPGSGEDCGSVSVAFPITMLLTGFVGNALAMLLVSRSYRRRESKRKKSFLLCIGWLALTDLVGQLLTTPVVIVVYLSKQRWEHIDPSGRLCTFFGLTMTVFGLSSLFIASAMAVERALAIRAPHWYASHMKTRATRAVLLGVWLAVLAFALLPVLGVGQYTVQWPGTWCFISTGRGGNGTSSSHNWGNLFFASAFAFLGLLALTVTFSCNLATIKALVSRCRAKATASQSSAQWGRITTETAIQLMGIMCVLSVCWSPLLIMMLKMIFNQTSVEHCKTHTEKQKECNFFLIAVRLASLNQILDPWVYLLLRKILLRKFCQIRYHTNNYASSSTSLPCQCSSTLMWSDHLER
Outline: (§1)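 Membranes from cells stably expressing human EP2, EP3 or EP4 incubated to equilibrium with [3H]PGE2 and compound at 0.1 to 10 000 nM. Non-specific binding defined with 10 uM PGE2; bound label separated by vacuum filtration and quantified by scintillation counting.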

human EP4 receptor = target: T2, human EP4 receptor (Homo sapiens, UniProt P35408); assay: Binding ability to human EP receptors ([3H]PGE2 displacement), EP4; conditions: membranes expressing human EP4; [3H]PGE2 1 nM; Cheng-Prusoff; read-out: pKi (M) EP4 (converted)
T2 construct: expressed in transfected cells
Outline: as §1

human EP2 receptor = target: T3, human EP2 receptor (Homo sapiens, UniProt P43116); assay: Binding ability to human EP receptors ([3H]PGE2 displacement), EP2; conditions: membranes expressing human EP2; [3H]PGE2 3 nM; Cheng-Prusoff; read-out: pKi (M) EP2 (converted)
T3 construct: expressed in transfected cells
Outline: as §1

[1] = target: T4, human EP2 prostanoid receptors (Homo sapiens, UniProt P43116); assay: Agonist activity at recombinant human EP2 prostanoid receptors (cAMP in HEK-293 clones); format: cell-based; conditions: for EC50: HEK-293 stably transfected with human EP2, cAMP accumulation, read-out: pEC50 EP2 (converted); for activity (EP2 part): functional classification at EP2
T4 construct: expressed in transfected cells; host or cells: HEK-293

[2] = target: T5, human EP4 prostanoid receptors (Homo sapiens, UniProt P35408); assay: Antagonist activity at EP4 prostanoid receptors (PGE2-stimulated cAMP in HEK-293 clones); format: cell-based; conditions: for Kb: HEK-293 stably transfected with human EP4, 30 min pre-incubation before PGE2, Gaddum-Schild, slope of unity, read-out: pA2 EP4 (converted); for activity (EP4 part): functional classification at EP4, second line of the activity cell
T5 construct: expressed in transfected cells; host or cells: HEK-293
Experimental: Culture media was Minimal essential media (MEM), supplemented with 10% foetal bovine serum, 100 U/ml penicillin, […] streptomycin, 2.5 μg/ml fungizone, 2mM glutamine. Cells were cultured to confluency (3-4 days) prior to use. Culture media was removed, and confluent cells washed three times in MEM. […] Cells were then stimulated by the addition of 25 μl of PGE2 or agonists prepared in assay buffer. In antagonist studies, cells were pre-incubated with compounds for 30 minutes prior to PGE2-mediated stimulation Plates were incubated for 15 min at 37° C., before termination of the reaction by the addition of 25 μl 1M HCl. The plate was then frozen at -20° C. overnight before determination of cAMP concentration. Stimulated cAMP levels were determined by radioligand displacement binding. In brief, plates were thawed rapidly in a waterbath, and the samples neutralised by the addition of 25 μl 1M NaOH. 30 μl was transferred to Millipore plates pre-coated with 0.5% Polyethylenimine (PEI). Samples were diluted by addition of 90 μl cAMP determination buffer (50 mM Tris, 5 mM EDTA, pH 7.0). […] 15 μl of 2 nM (final concentration) [^3H] cAMP, and 15 μl of 3'5'-cAMP protein kinase (8 μg/well final concentration) prepared in cAMP determination buffer containing 0.1% BSA, were added to each well. Plates were incubated on ice for 2 hours, before bound and free radiolabel were separated by vacuum filtration harvesting using the Millipore vacuum manifold, using ice cold water as the termination buffer. The sealing mat was removed from the Millipore plates, and the filters allowed to dry overnight. 50 μl Microscint 0 (Packard Bioscience) was added to each well, and the plate counted using the Micro-Beta Trilux topcount ^3H program. cAMP accumulation was determined from the standard curve, and values calculated in pmoles cAMP/well. Antagonists affinities (pA2 values) were determined assuming a slope of unity and the […]-Schild equation, where pA2=log [concentration ratio-1]-log[antagonist].

T2 sequence (P35408 whole entry): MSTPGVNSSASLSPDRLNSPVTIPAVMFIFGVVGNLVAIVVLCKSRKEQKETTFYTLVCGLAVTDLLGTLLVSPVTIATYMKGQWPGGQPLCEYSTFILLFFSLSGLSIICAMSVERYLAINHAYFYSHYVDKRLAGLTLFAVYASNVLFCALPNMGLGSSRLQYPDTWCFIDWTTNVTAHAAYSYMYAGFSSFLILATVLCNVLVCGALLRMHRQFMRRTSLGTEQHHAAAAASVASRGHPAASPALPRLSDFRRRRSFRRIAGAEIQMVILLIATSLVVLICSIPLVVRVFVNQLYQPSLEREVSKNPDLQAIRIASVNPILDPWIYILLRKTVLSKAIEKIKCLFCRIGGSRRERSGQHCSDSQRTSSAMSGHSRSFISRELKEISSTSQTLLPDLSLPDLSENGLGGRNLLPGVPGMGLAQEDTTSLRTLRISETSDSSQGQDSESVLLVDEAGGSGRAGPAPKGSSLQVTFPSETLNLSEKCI
T5 sequence (P35408 whole entry): as above
T4 sequence (P43116 whole entry): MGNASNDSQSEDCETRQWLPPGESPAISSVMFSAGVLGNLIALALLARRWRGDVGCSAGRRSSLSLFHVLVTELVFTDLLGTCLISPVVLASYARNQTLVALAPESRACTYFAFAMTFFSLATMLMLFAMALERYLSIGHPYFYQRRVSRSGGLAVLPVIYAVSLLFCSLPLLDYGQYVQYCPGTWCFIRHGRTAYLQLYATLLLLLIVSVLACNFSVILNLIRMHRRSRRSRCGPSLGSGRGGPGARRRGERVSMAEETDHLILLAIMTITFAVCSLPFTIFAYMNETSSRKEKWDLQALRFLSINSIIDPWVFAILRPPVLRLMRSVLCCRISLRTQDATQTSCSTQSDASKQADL
T3 sequence (P43116 whole entry): as above

Structure (SMILES)	Ki (human EP3 receptor) [M]	Ki (human EP4 receptor) [M]	Ki (human EP2 receptor) [M]	EC50 [1] [nM]	activity (EP2 part) [1]	Kb [2] [nM]	activity (EP4 part) [2]
O=C(O)Cc1ccc(NC(=O)c2ccc(-c3ccccc3)o2)cc1 [Compound 2, {4-[(5-Phenyl-furan-2-carbonyl)-amino]-phenyl}-acetic acid]	> 1e-05	< 1e-05	< 1e-05	< 10000	EP2 agonist/	< 10000	EP4 antagonist
O=C(O)c1ccc(CNC(=O)c2ccc(-c3ccccc3)o2)cc1 [Compound 4, 4-{[(5-Phenyl-furan-2-carbonyl)-amino]-methyl}-benzoic acid]	> 1e-05	< 1e-05	< 1e-05	< 10000	EP2 agonist/	< 10000	EP4 antagonist
O=C(O)Cc1cccc(NC(=O)c2ccc(-c3cc(Cl)cc(Cl)c3)o2)c1 [Compound 26, (3-{[5-(3,5-Dichloro-phenyl)-furan-2-carbonyl]-amino}-phenyl)-acetic acid]	> 1e-05	< 1e-07	< 1e-07	< 100	EP2 agonist/	< 1000	EP4 antagonist
O=C(O)/C=C/c1cccc(NC(=O)c2ccc(-c3ccccc3)o2)c1 [Compound 61, 3-{3-[(5-Phenyl-furan-2-carbonyl)-amino]-phenyl}-acrylic acid]	> 1e-05	< 1e-06	< 1e-07	< 100	EP2 agonist/	< 1000	EP4 agonist
O=C(O)COc1cccc(NC(=O)c2ccc(-c3cccc(Cl)c3)o2)c1 [Compound 66, (3-{[5-(3-Chloro-phenyl)-furan-2-carbonyl]-amino}-phenoxy)-acetic acid]	> 1e-05	< 1e-06	< 1e-07	< 100	EP2 agonist/	< 1000	EP4 agonist
O=C(O)COc1cccc(NC(=O)c2ccc(-c3cc(Cl)cc(Cl)c3)o2)c1 [Compound 68, (3-{[5-(3,5-Dichloro-phenyl)-furan-2-carbonyl]-amino}-phenoxy)-acetic acid]	> 1e-05	< 1e-06	< 1e-07	< 100	EP2 agonist/	< 1000	EP4 antagonist
O=C(O)/C=C/c1cccc(NC(=O)c2ccc(-c3cccc(Cl)c3)o2)c1 [Compound 69, 3-(3-{[5-(3-Chloro-phenyl)-furan-2-carbonyl]-amino}-phenyl)-acrylic acid]	> 1e-05	< 1e-06	< 1e-07		EP2 agonist/		EP4 antagonist
O=C(O)/C=C/c1cccc(NC(=O)c2ccc(-c3cc(Cl)cc(Cl)c3)o2)c1 [Compound 70, 3-(3-{[5-(3,5-Dichloro-phenyl)-furan-2-carbonyl]-amino}-phenyl)-acrylic acid]	> 1e-05	< 1e-06	< 1e-07		EP2 agonist/		EP4 antagonist
O=C(O)c1cc2cc(NC(=O)c3ccc(-c4cccc(Cl)c4)o3)ccc2[nH]1 [Compound 72, 5-{[5-(3-Chloro-phenyl)-furan-2-carbonyl]-amino}-1H-indole-2-carboxylic acid]	> 1e-05	< 1e-05	< 1e-06	< 1000	EP2 agonist/	< 1000	EP4 antagonist
O=C(O)CCc1cccc(NC(=O)c2ccc(-c3cccc(Cl)c3)o2)c1 [Compound 125, 3-(3-{[5-(3-Chloro-phenyl)-furan-2-carbonyl]-amino}-phenyl)-propionic acid]	> 1e-05	< 1e-05	< 1e-07	< 100	EP2 Agonist/	< 10000	EP4 Antagonist
O=C(O)CCc1cccc(NC(=O)c2ccc(-c3cc(Cl)cc(Cl)c3)o2)c1 [Compound 126, 3-(3-{[5-(3,5-Dichloro-phenyl)-furan-2-carbonyl]-amino}-phenyl)-propionic acid]	> 1e-05	< 1e-06	< 1e-07	< 100	EP2 Agonist/	< 1000	EP4 Antagonist
O=C(O)Cc1cccc(NC(=O)c2cccc(-c3cccc(Cl)c3)n2)c1 [Compound 129, (3-{[6-(3-Chloro-phenyl)-pyridine-2-carbonyl]-amino}-phenyl)-acetic acid]	> 1e-05	< 1e-06	< 1e-07	< 100	EP2 Agonist/	< 1000	EP4 Antagonist
O=C(O)Cc1cccc(NC(=O)c2cccc(-c3cc(Cl)cc(Cl)c3)n2)c1 [Compound 130, (3-{[6-(3,5-Dichloro-phenyl)-pyridine-2-carbonyl]-amino}-phenyl)-acetic acid]	> 1e-05	< 1e-06	< 1e-07	< 100	EP2 Agonist/	< 1000	EP4 Antagonist
O=C(O)COc1cccc(NC(=O)c2cccc(-c3cc(Cl)cc(Cl)c3)n2)c1 [Compound 133, (3-{[6-(3,5-Dichloro-phenyl)-pyridine-2-carbonyl]-amino}-phenoxy)-acetic acid]	> 1e-05	< 1e-06	< 1e-07	< 100	EP2 Agonist/	< 100	EP4 Agonist
O=C(O)COc1cccc(NC(=O)c2cccc(-c3cccc(Cl)c3)n2)c1 [Compound 138, (3-{[6-(3-Chloro-phenyl)-pyridine-2-carbonyl]-amino}-phenoxy)-acetic acid]	> 1e-05	< 1e-07	< 1e-07	< 100	EP2 Agonist/	< 1000	EP4 Agonist
O=C(O)/C=C/c1cccc(NC(=O)c2cc(-c3cc(Cl)cc(Cl)c3)ccc2F)c1 [Compound 144, 3-{3-[(3′,5′-Dichloro-4-fluoro-biphenyl-3-carbonyl)-amino]-phenyl}-acrylic acid]	> 1e-05	< 1e-06	< 1e-07	< 100	EP2 Agonist	< 1000	
O=C(O)/C=C/c1cccc(NC(=O)c2cccc(-c3ccccc3)n2)c1 [Compound 178, 3-{3-[(6-Phenyl-pyridine-2-carbonyl)-amino]-phenyl}-acrylic acid]	> 1e-05	< 1e-07	< 1e-07	< 100	EP2 Agonist/	< 1000	EP4 Agonist
